Publication PMC4366162 (PLoS ONE, 2015)
pIC50: −log10 of the molar value. Where a name gives a salt, the structure may show the parent alone. Read-outs that look alike come from different tables or passages of the source.

Key:
[1] = system: LPS-induced NO production in rat kidney mesangial cells (HBZY-1); test: Total nitrite assay (Griess): inhibition of LPS-induced NO production in kidney mesangial cells; format: cell-based; conditions: for pIC50: read-out: IC50 against LPS-induced NO production (total nitrite)
Description: (§1) Rat mesangial HBZY-1 cells were obtained from China Center for Type Culture Collection (Wuhan, China). Cells were maintained in high glucose DMEM medium (Invitrogen, USA) supplemented with 10% heat-inactivated fetal bovine serum (FBS), 25 mM HEPES, 2 mM L-glutamine, 0.1 mM nonessential amino acids, 1.0 mM sodium pyruvate, 50 U/mL penicillin, and 50 μg/mL streptomycin at 37°C and 5% CO2. The cell passage number used for the following investigation was between 10 to 20 passages.
Mesangial cells were plated on 48-well plates at a density of 50,000 cells per well overnight in DMEM media containing 2% FBS. Cells were treated by flavonoid compounds at a series of concentrations from 0, 0.05, 0.1, 0.5, 1, 5, 10 to 50 μM or 0, 1, 5, 10, 50, 100 to 200 μM based on the initial activity range with or without 10 ng/mL LPS. Total nitrite production in the treatment media after 48 h was measured with Griess assay. Briefly, 100 μL media was mixed with 25 μL of reagent І (1% sulfanilamide in 5% phosphoric acid) and then 25 μL of reagent II (0.1% N-1-napthylethylenediamine dihydrochloride in water). The optical absorbance of the resulting solution was recorded at 540 nm with a 318C-microplate reader (Sanco Instrument Ltd. Shanghai, China) after 20 min. […] IC50 values were obtained using the dose-response analysis provided by the GraphPad Prism software.
All of the hydroxylated flavones were abbreviated as the positions of hydroxyl groups followed by—HO. The total production of nitrite in the treatment media was measured with Griess assay at 48 h post 10 ng/mL LPS stimulation.

cytochrome P450 2C9 = system: cytochrome P450 2C9; design: method as in PMID 19515014; conditions: cited from earlier work
[2] = NO radical quenching study (spontaneous NO from sodium nitroprusside, Griess assay); conditions: sodium nitroprusside 5 mM in solution, read-out: IC50 of inhibition of spontaneously generated NO radicals from sodium nitroprusside
Description: Spontaneous generation of NO in solutions was achieved by a freshly prepared sodium nitroprusside stock solution in water (50 mM). The level of total nitrile production was determined by the Griess assay with the standard curve of sodium nitrile as described above. For the assay of NO inhibition by flavonoids, sodium nitroprusside solution (10 mM, 25 μL) was mixed with an equal volume of flavonoid solution in 50% DMSO, and the resulting solution was incubated at room temperature for 10 min. Griess reagent І and Griess reagent II (75 μL each) were subsequently added with a gap of 10 min. The optical density at 540 nm was recorded on a 318C-microplate reader after 15 min. The resulting data were processed and analyzed by the GraphPad Prism Software as described above.
Fig 3 Direct NO radical quench study with selected monohydroxylated and polyhydroxylated flavones. Spontaneous generation of NO was achieved by a freshly prepared sodium nitroprusside stock solution (5 mM) in water in Griess assay (top).

mesangial cells = test: MTT cell viability assay; format: cell-based, rat; conditions: 48 h
Description: as §1
Cells were plated overnight in growth media (5,000 cells per well) and then treated with each compound for 48 h at increasing concentrations with total DMSO at 0.1%. MTT assay was carried out as reported, and cell viability was plotted with GraphPad Prism program.

[3] = system: inducible NO synthase (iNOS); test: Western blot analysis of LPS-induced iNOS protein; format: cell-based, rat; conditions: 12 h pretreatment, LPS 500 ng/mL, 24 h
Description: (§2) Cells were plated in growth media overnight at a density of 1×10^6 cells per well on a 6-well plate. […] For the western blot analysis, cells were washed with PBS and then lysed with 150 μL RIPA buffer containing protease and phosphatase inhibitor cocktail. The supernatants were collected by centrifuge at 14,000 g×10 min at 4°C and stored at -80°C. The total protein content of lysates was determined by enhanced BCA protein assay kit (Beyotime Institute of Biotechnology, Shanghai, China). Electrophoresis was carried out on a NuPAGE Novex Bis-Tris […] gel (Invitrogen, USA) under the reduced condition. After electrophoresis separation, proteins were transferred to membranes and incubated with rabbit monoclonal phospho-NF-κB-p65 antibody (3033S, 1:1000 dilution, Cell Signaling, USA), rabbit polyclonal iNOS antibody (ab3523, 1:500 dilution, Abcam, USA) or mouse monoclonal β-actin antibody (ANT009, 1:1000 dilution AntGene, China). Targeted proteins were then visualized with Qdot 625 conjugate kit (Invitrogen, USA). Gel images were captured with ZF-258 Gel Imaging System (Shanghai Jiapeng Scientific Co. Ltd, China) under illuminating light at 350 nm.
(§3) Fig 5 Western blot analysis of potential molecular targets by 6-methoxyflavone in kidney mesangial cells with LPS as the inflammatory stimuli. […]

[4] = system: phosphorylated p65 protein (NF-κB pathway); test: Western blot analysis of LPS-activated NF-κB pathway (phosphorylated p65); format: cell-based, rat; conditions: up to 1.0 μM, 12 h pretreatment, LPS 500 ng/mL, 15 min
Description: as §2, §3

[5] = Rattus norvegicus, HBZY-1, 48 h, rat mesangial cells, 10 ng/mL LPS, 48 h, Griess assay
[6] = Rattus norvegicus, HBZY-1, 48 h

Structure (SMILES) | pIC50 [1, 5] | other results
O=c1cc(-c2ccc(O)cc2)oc2cc(O)cc(O)c12 [4',5,7-HO, apigenin] | < 3.70 | –
O=c1cc(-c2ccccc2)oc2ccc(O)cc12 [compound 1, 6-hydroxyflavone] | ~5.70 | pIC50 ([1]; rat mesangial cells, 10 ng/mL LPS, 48 h, Griess assay): 5.77; mode of inhibition of cytochrome P450 2C9 (cytochrome P450 2C9): noncompetitive inhibition; pIC50 [2]: < 3.30
O=c1c(O)c(-c2ccc(O)c(O)c2)oc2cc(O)ccc12 [3,3',4',7-HO, fisetin] | 4.96 | –
O=c1c(O)c(-c2ccccc2)oc2ccccc12 [compound 4, 3-Hydroxyflavone] | < 3.70 | pIC50 [2]: < 3.30
O=c1cc(-c2cc(O)c(O)c(O)c2)oc2cc(O)cc(O)c12 [3',4',5',5,7-HO, tricetin] | ~3.70 | –
O=c1c(O)c(-c2cc(O)c(O)c(O)c2)oc2cc(O)cc(O)c12 [3,3',4',5',5,7-HO, 3,3′,4′,5,5′,7-hexahydroxyflavone] | < 3.70 | pIC50 [2]: ~2.00
O=C1O[C@H]([C@@H](O)CO)C(O)=C1O [ascorbic acid, reference compound] | – | pIC50 [2]: 3.60
O=c1c(O)c(-c2ccc(O)cc2O)oc2ccc(O)cc12 [2',3,4',6-HO, 2′,3,4′,6-tetrahydroxyflavone] | ~3.70 | –
O=c1c(O)c(-c2ccc(O)cc2O)oc2cc(O)cc(O)c12 [2',3,4',5,7-HO, morin] | ~3.70 | –
CC(=O)Oc1ccc2oc(-c3ccccc3)cc(=O)c2c1 [compound 10, 6-Acetoxyflavone] | 6.22 | cytotoxicity on mesangial cells (mesangial cells; at 10 μM): weak cytotoxicity
O=c1cc(-c2ccccc2O)oc2ccccc12 [compound 3] | < 3.70 | –
O=c1cc(-c2ccccc2)oc2c(O)c(O)ccc12 [compound 8] | 4.33 | –
O=c1c(O)c(-c2ccccc2O)oc2c(O)c(O)ccc12 [2',3,7,8-HO] | ~3.70 | –
O=c1c(O)c(-c2ccc(O)c(O)c2)oc2c(O)c(O)cc(O)c12 [3,3',4',5,7,8-HO, 3,3′,4′,5,7,8-hexahydroxyflavone] | – | pIC50 [1, 6]: < 3.70
O=c1c(O)c(-c2ccc(O)c(O)c2)oc2cc(O)cc(O)c12 [3,3',4',5,7-HO, quercetin] | 4.66 | –
O=c1c(-c2ccc(O)cc2)coc2cc(O)ccc12 [daidzein, reference compound] | < 3.70 | –
O=c1c(O)c(-c2cccc(O)c2)oc2cc(O)ccc12 [3,3',7-HO] | 4.96 | –
O=c1cc(-c2ccc(O)cc2)oc2ccc(O)cc12 [compound 5, 4′,6-dihydroxyflavone] | ~5.70 | –
Oc1ccc(/C=C/c2cc(O)cc(O)c2)cc1 [resveratrol, reference compound] | 4.96 | inhibition of downstream inducible NO synthase (iNOS) upon LPS stimulation ([3]; at 10 μM): weak inhibition
O=c1cc(-c2ccccc2)oc2ccc(OS(=O)(=O)O)cc12 [compound 11, 6-flavone sulfate sodium salt] | 5.68 | cytotoxicity on mesangial cells (mesangial cells; at 10 μM): minimal
O=c1cc(-c2ccccc2)oc2cc(O)ccc12 [compound 2, 7-hydroxyflavone] | – | pIC50 [1, 6]: 4.34; pIC50 [2]: < 3.30
COc1ccc2oc(-c3ccccc3)cc(=O)c2c1 [compound 9, 6-methoxyflavone] | 6.72 | inhibition of downstream inducible NO synthase (iNOS) upon LPS stimulation ([3]; from 200 nM to 1.0 μM): significant inhibition; cytotoxicity on mesangial cells (mesangial cells; at 1.0 μM): weak cytotoxicity; potency against LPS-induced NO production relative to 6-hydroxyflavone ([1]; more potent than 6-hydroxyflavone (IC50 1.7 μM)): 10 fold; inhibition of p65 activation (phosphorylated p65) [4]: no observable inhibition
O=c1c(O)c(-c2ccccc2)oc2cc(O)ccc12 [compound 7] | – | pIC50 [1, 6]: 4.57
O=c1cc(-c2ccc(O)cc2)oc2cccc(O)c12 [compound 6] | 4.85 | increase of IC50 against LPS-induced NO production versus flavone 5 ([1]; shift of hydroxyl group from 6-position to 5-position): 7 fold
